Measurements: the supplement of paper PMC8149375

What was measured:
Details in all cases: treatment: drug alone; 5 days
CAKI-1 [1] = test: minimum viability across doses, drug alone, relative to DMSO (fraction); higher = less growth inhibition
Experimental: (§1)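 Primary HTS: 8 RCC cell lines treated with 8 doses (up to 10 uM) of each library drug alone for 5 days; viability read by CellTiter-Glo and normalised to DMSO. GI50 was fitted with XLfit (4-parameter), AUC is the area under the dose-response curve, and minimum viability is the lowest fraction of DMSO viability across doses.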

A498 [2] = test: as above
Experimental: as §1

SN12C [3] = test: as above
Experimental: as §1

786-O [4] = test: as above
Experimental: as §1

ACHN [5] = test: as above
Experimental: as §1

UO-31 [6] = test: as above
Experimental: as §1

TK-10 [7] = test: as above
Experimental: as §1

769-P [8] = test: as above
Experimental: as §1

CAKI-1 [9] = test: AUC of dose-response viability curve, drug alone (arbitrary (AUC of normalised viability)); higher = less growth inhibition
Experimental: as §1

A498 [10] = test: as above
Experimental: as §1

SN12C [11] = test: as above
Experimental: as §1

786-O [12] = test: as above
Experimental: as §1

ACHN [13] = test: as above
Experimental: as §1

UO-31 [14] = test: as above
Experimental: as §1

TK-10 [15] = test: as above
Experimental: as §1

769-P [16] = test: as above
Experimental: as §1

CAKI-1 [17] = test: GI50, drug alone; higher = less potent
Experimental: as §1

A498 [18] = test: GI50, drug alone; higher = less potent
Experimental: as §1

SN12C [19] = test: GI50, drug alone; higher = less potent
Experimental: as §1

786-O [20] = test: GI50, drug alone; higher = less potent
Experimental: as §1

ACHN [21] = test: GI50, drug alone; higher = less potent
Experimental: as §1

UO-31 [22] = test: GI50, drug alone; higher = less potent
Experimental: as §1

TK-10 [23] = test: GI50, drug alone; higher = less potent
Experimental: as §1

769-P [24] = test: GI50, drug alone; higher = less potent
Experimental: as §1

| Compound | GI50, drug alone (786-O [20]) [nM] | GI50, drug alone (ACHN [21]) [nM] | minimum viability across doses (CAKI-1 [1]) | minimum viability across doses (A498 [2]) | minimum viability across doses (SN12C [3]) | minimum viability across doses (786-O [4]) | minimum viability across doses (ACHN [5]) | minimum viability across doses (UO-31 [6]) | minimum viability across doses (TK-10 [7]) | minimum viability across doses (769-P [8]) | AUC of dose-response viability curve (CAKI-1 [9]) | AUC of dose-response viability curve (A498 [10]) | AUC of dose-response viability curve (SN12C [11]) | AUC of dose-response viability curve (786-O [12]) | AUC of dose-response viability curve (ACHN [13]) | AUC of dose-response viability curve (UO-31 [14]) | AUC of dose-response viability curve (TK-10 [15]) | AUC of dose-response viability curve (769-P [16]) | GI50, drug alone (CAKI-1 [17]) [nM] | GI50, drug alone (A498 [18]) [nM] | GI50, drug alone (SN12C [19]) [nM] | GI50, drug alone (UO-31 [22]) [nM] | GI50, drug alone (TK-10 [23]) [nM] | GI50, drug alone (769-P [24]) [nM] |
| --- | --- | --- | --- | --- | --- | --- | --- | --- | --- | --- | --- | --- | --- | --- | --- | --- | --- | --- | --- | --- | --- | --- | --- | --- |
| CCOc1cc2ncc(C#N)c(Nc3ccc(OCc4ccccn4)c(Cl)c3)c2cc1NC(=O)/C=C/CN(C)C [Neratinib (HKI-272)] | 756 | 77.1 | 0.161 | 0.894 | 0.315 | 0.345 | 0.117 | 0.697 | 0.251 | 0.0782 | 2.11 | 3.99 | 2.44 | 2.38 | 1.48 | 4.06 | 1.77 | 2.43 | 407 | > 10000 | 1350 | > 10000 | 161 | 1140 |
| O=C(O)[C@]1(Cc2cccc(Nc3nccs3)n2)CC[C@@H](Oc2cccc(Cl)c2F)CC1 [MK-5108 (VX-689)] | 30.4 | 854 | 0.419 | 0.41 | 0.154 | 0.00733 | 0.262 | 0.0125 | 0.404 | 0.179 | 2.88 | 3.44 | 2.46 | 1.01 | 2.35 | 3.38 | 2.65 | 3.08 | 3250 | 3720 | 1320 | 908 | 3190 | 2610 |
| CO[C@H]1CC2CC[C@@H](C)[C@@](O)(O2)C(=O)C(=O)N2CCCC[C@H]2C(=O)O[C@H]([C@H](C)C[C@@H]2CCC(OC(=O)C(C)(CO)CO)[C@H](OC)C2)CC(=O)[C@H](C)/C=C(\C)[C@@H](O)[C@@H](OC)C(=O)[C@H](C)C[C@H](C)/C=C/C=C/C=C/1C (stereo in doubt) [Temsirolimus (Torisel)] | < 3 | 386 | 0.433 | 0.641 | 0.578 | 0.294 | 0.407 | 0.299 | 0.486 | 0.62 | 2.15 | 2.57 | 2.31 | 1.31 | 2.03 | 1.58 | 2.39 | 2.8 | 1270 | > 10000 | > 10000 | 80.3 | 3900 | > 10000 |
| Cc1ccc(C(=O)Nc2cccc(C(F)(F)F)c2)cc1Nc1nc(-c2cccnc2)nc2c1cnn2C [NVP-BHG712] | 809 | 1900 | 0.0328 | 0.023 | 0.0886 | 0.00203 | 0.109 | 0.00612 | 0.0678 | 0.06 | 3.03 | 3.97 | 3.15 | 2.18 | 2.89 | 5.14 | 2.45 | 3.13 | 2450 | 8450 | 4560 | 8280 | 1340 | 3810 |
| CCN(CC)CCCCNc1ncc2cc(-c3cc(OC)cc(OC)c3)c(NC(=O)NC(C)(C)C)nc2n1 | 2360 | 779 | 0.074 | 0.265 | 0.338 | 0.00314 | 0.0868 | 0.128 | 0.348 | 0.461 | 2.27 | 3.77 | 2.73 | 2.06 | 2.2 | 3.7 | 2.69 | 3.21 | 614 | 6940 | 8230 | 7930 | 4780 | 9270 |
| Cc1c(CN2CCN(C(=O)[C@H](C)O)CC2)sc2c(N3CCOCC3)nc(-c3cnc(N)nc3)nc12 [GDC-0980 (RG7422)] | 495 | 231 | 0.0405 | 0.215 | 0.133 | 0.0296 | 0.0739 | 0.0186 | 0.0656 | 0.0688 | 1.75 | 3.1 | 2.07 | 2.23 | 1.89 | 2.23 | 1.73 | 2.2 | 190 | 1360 | 370 | 311 | 167 | 495 |

Now from value to molecule, other results behind:

| GI50, drug alone (786-O [20]) [nM] | GI50, drug alone (ACHN [21]) [nM] | Compound | minimum viability across doses (CAKI-1 [1]) | minimum viability across doses (A498 [2]) | minimum viability across doses (SN12C [3]) | minimum viability across doses (786-O [4]) | minimum viability across doses (ACHN [5]) | minimum viability across doses (UO-31 [6]) | minimum viability across doses (TK-10 [7]) | minimum viability across doses (769-P [8]) | AUC of dose-response viability curve (CAKI-1 [9]) | AUC of dose-response viability curve (A498 [10]) | AUC of dose-response viability curve (SN12C [11]) | AUC of dose-response viability curve (786-O [12]) | AUC of dose-response viability curve (ACHN [13]) | AUC of dose-response viability curve (UO-31 [14]) | AUC of dose-response viability curve (TK-10 [15]) | AUC of dose-response viability curve (769-P [16]) | GI50, drug alone (CAKI-1 [17]) [nM] | GI50, drug alone (A498 [18]) [nM] | GI50, drug alone (SN12C [19]) [nM] | GI50, drug alone (UO-31 [22]) [nM] | GI50, drug alone (TK-10 [23]) [nM] | GI50, drug alone (769-P [24]) [nM] |
| --- | --- | --- | --- | --- | --- | --- | --- | --- | --- | --- | --- | --- | --- | --- | --- | --- | --- | --- | --- | --- | --- | --- | --- | --- |
| 381 | 708 | CCS(=O)(=O)c1cccc(-c2cc(C(=O)NC3CCN(C)CC3)c(C)c3[nH]c4ncc(C)cc4c23)c1 [TAK-901] | 0.0277 | 0.0141 | 0.00544 | 0.00628 | 0.0394 | 0.21 | 0.0432 | 0.521 | 2.65 | 3.09 | 1.98 | 1.81 | 2.33 | 4.08 | 2.27 | 3.25 | 1320 | 956 | 383 | 8940 | 836 | > 10000 |
| 2010 | 5850 | COc1cc(Nc2ncc(F)c(Nc3ccc4c(n3)NC(=O)C(C)(C)O4)n2)cc(OC)c1OC.O=S(=O)(O)c1ccccc1 [R406] | 0.183 | 0.882 | 0.336 | 0.221 | 0.451 | 0.164 | 0.479 | 0.536 | 2.59 | 3.57 | 3.11 | 2.46 | 2.94 | 2.59 | 2.85 | 3.1 | 1330 | > 10000 | 4600 | 8760 | 9020 | > 10000 |
